Source: publication PMC5974779, “Prediction of Drug-Induced Hepatotoxicity Using Long-Term Stable Primary Hepatic 3D Spheroid Cultures in Chemically Defined Conditions” (Toxicological Sciences, 2018)
Where two headings read alike, the source gives them in different places.

Experiments:
clinical DILI in man = settings: cited from earlier work
PHH 2D sandwich cultures = settings: cited from earlier work
[1] = cited from earlier work; for Extent of hepatic metabolism: ref DrugBank and Prescribers' Digital Reference database
[2] = cited from earlier work
[3] = test system: primary human hepatocytes (PHH) 3D spheroids
[4] = clinical DILI classification in man (POS/NEG)
[5] = clinical DILI classification used in this study, Supplementary Table 2, ref Chen et al., 2011, Guo et al., 2005, O'Brien et al., 2006, Sakatis et al., 2012, Suzuki et al., 2010, Xu et al., 2008
[6] = clinical DILI classification, Supplementary Table 1, ref Chen et al., 2011, Guo et al., 2005, O'Brien et al., 2006, Sakatis et al., 2012, Suzuki et al., 2010, Xu et al., 2008
[7] = reported pattern of liver damage, Supplementary Table 2, ref literature
[8] = PHH 2D sandwich cultures, 100x Cmax, ref Xu 2008
[9] = therapeutic total cmax, ref PMID
[10] = DILI classification score, ref Suzuki et al. (2010)
[11] = FDA drug labeling DILI score, ref Chen et al., 2011
[12] = clinical DILI classification, ref Xu et al. (2008)

## C[C@H](CCC(=O)O)[C@H]1CC[C@H]2[C@@H]3[C@H](O)C[C@@H]4C[C@H](O)CC[C@]4(C)[C@H]3CC[C@]12C [Chenodiol]
Clinical DILI in man; [4]
  DILI in vivo: POS
Clinical DILI in man; [5]
  Classified as: POS
Clinical DILI in man; [6]
  DILI in vivo: POS
Clinical DILI in man; [7]
  Type of DILI: Cholestatic injury
PHH 2D sandwich cultures; [8]
  2Dsw (Xu 2008) 100x: Positive
[1]
  Extent of hepatic metabolism: Extensive
[2]; [9]
  Cmax: 8000 nM
[3]
  Chemically defined spheroids (this study) 20x: Positive

## Cc1cc(C2CCCCC2)n(O)c(=O)c1 [Ciclopirox]
Clinical DILI in man; [4]
  DILI in vivo: NEG
Clinical DILI in man; [5]
  Classified as: NEG
Clinical DILI in man; [6]
  DILI in vivo: NEG
Clinical DILI in man; [7]
  Type of DILI: Non-hepatotoxic
PHH 2D sandwich cultures; [8]
  2Dsw (Xu 2008) 100x: Negative
[1]
  Extent of hepatic metabolism: Extensive
[2]; [9]
  Cmax: 373 nM
[3]
  Chemically defined spheroids (this study) 20x: Negative

## NCCc1ccc(O)c(O)c1 [Dopamine]
Clinical DILI in man; in vivo
  Classified as: NEG
  Clinical DILI class (panel heading of Figure 4): DILI negative
  DILI in vivo: NEG
  FDA (0-8): 0
  Type of DILI: Non-hepatotoxic
  Xu et al. (2008): Negative
PHH 2D sandwich cultures; [8]
  2Dsw (Xu 2008) 100x: Negative
[1]
  Extent of hepatic metabolism: Extensive
[2]; [9]
  Cmax: 121 nM
[3]
  Chemically defined spheroids (this study) 20x: Negative

## NCC1(CC(=O)O)CCCCC1 [Gabapentin]
Clinical DILI in man; [10]
  Suzuki et al. (2010): 1
Clinical DILI in man; [11]
  FDA (0-8): 3
Clinical DILI in man; [4]
  DILI in vivo: NEG
Clinical DILI in man; [5]
  Classified as: NEG
Clinical DILI in man; [6]
  DILI in vivo: NEG
Clinical DILI in man; [12]
  Xu et al. (2008): Negative
Clinical DILI in man; [7]
  Type of DILI: Non-hepatotoxic
PHH 2D sandwich cultures
  2Dsw (Xu 2008) 100x: Negative
[1]
  Extent of hepatic metabolism: Minimal
[2]; human, in vivo
  Cmax: 14400 nM
[3]
  Chemically defined spheroids (this study) 20x: Negative

## O=C(OCC(O)CO)c1ccccc1Nc1ccnc2cc(Cl)ccc12 (centres unmarked) [Glafenine]
Clinical DILI in man; in vivo
  Classified as: POS
  Clinical DILI class (panel heading of Figure 4): Severe DILI
  DILI in vivo: POS
  FDA (0-8): Withdrawn
  FDA (Severity): most DILI concern
  Sakatis et al. (2012): Hepatotoxic
  Type of DILI: Hepatocellular injury
  Xu et al. (2008): Positive
PHH 2D sandwich cultures; [8]
  2Dsw (Xu 2008) 100x: Negative
[1]
  Extent of hepatic metabolism: Extensive
[2]; [9]
  Cmax: 1880 nM
[3]
  Chemically defined spheroids (this study) 20x: Negative

## CC(C)NCC(O)c1ccc(O)c(O)c1 (centres unmarked) [Isoproterenol]
Clinical DILI in man; in vivo
  Classified as: NEG
  Clinical DILI class (panel heading of Figure 4): DILI negative
  DILI in vivo: NEG
  FDA (0-8): 0
  O'Brien et al. (2003): Non-toxic
  Type of DILI: Non-hepatotoxic
  Xu et al. (2008): Negative
PHH 2D sandwich cultures; [8]
  2Dsw (Xu 2008) 100x: Negative
[1]
  Extent of hepatic metabolism: Moderate
[2]; [9]
  Cmax: 2020 nM
[3]
  Chemically defined spheroids (this study) 20x: Negative

## Sc1ncnc2nc[nH]c12 [Mercaptopurine]
Clinical DILI in man; in vivo
  Classified as: POS
  Clinical DILI class (panel heading of Figure 4): Severe DILI
  DILI in vivo: POS
  FDA (0-8): 8
  FDA (Severity): most DILI concern
  Guo et al. (2005): 3
  O'Brien et al. (2003): Severely
  Sakatis et al. (2012): Hepatotoxic
  Suzuki et al. (2010): 2
  Type of DILI: Cholestatic injury or Mixed hepatitis
  Xu et al. (2008): Positive
PHH 2D sandwich cultures; [8]
  2Dsw (Xu 2008) 100x: Negative
[1]
  Extent of hepatic metabolism: Extensive
[2]; [9]
  Cmax: 480 nM
[3]
  Chemically defined spheroids (this study) 20x: Positive

## Nc1ccc(/N=N/c2ccccc2)c(N)n1 [Phenazopyridine]
Clinical DILI in man; [4]
  DILI in vivo: POS
Clinical DILI in man; [5]
  Classified as: POS
Clinical DILI in man; [6]
  DILI in vivo: POS
Clinical DILI in man; [7]
  Type of DILI: Hepatocellular injury
PHH 2D sandwich cultures; [8]
  2Dsw (Xu 2008) 100x: Negative
[1]
  Extent of hepatic metabolism: Moderate
[2]; [9]
  Cmax: 110 nM
[3]
  Chemically defined spheroids (this study) 20x: Negative

## NNCCc1ccccc1 [Phenelzine]
Clinical DILI in man; in vivo
  Classified as: NEG
  Clinical DILI class (panel heading of Figure 4): DILI negative
  DILI in vivo: NEG
  FDA (0-8): 3
  Sakatis et al. (2012): Hepatotoxic
  Type of DILI: Non-hepatotoxic
  Xu et al. (2008): Negative
PHH 2D sandwich cultures; [8]
  2Dsw (Xu 2008) 100x: Negative
[1]
  Extent of hepatic metabolism: Extensive
[2]; [9]
  Cmax: 85 nM
[3]
  Chemically defined spheroids (this study) 20x: Negative

## O=C1NC(=O)C(c2ccccc2)(c2ccccc2)N1 [Phenytoin]
Clinical DILI in man; in vivo
  Classified as: POS
  Clinical DILI class (panel heading of Figure 4): Severe DILI
  DILI in vivo: POS
  FDA (0-8): 8
  FDA (Severity): less DILI concern
  Guo et al. (2005): 2
  Sakatis et al. (2012): Hepatotoxic
  Suzuki et al. (2010): 2
  Type of DILI: Hepatocellular injury or Mixed hepatitis
  Xu et al. (2008): Positive
PHH 2D sandwich cultures; [8]
  2Dsw (Xu 2008) 100x: Positive
[1]
  Extent of hepatic metabolism: Extensive
[2]; [9]
  Cmax: 21700 nM
[3]
  Chemically defined spheroids (this study) 20x: Negative

## CC[C@@H]1C(=O)OC[C@@H]1Cc1cncn1C [Pilocarpine]
Clinical DILI in man; [11]
  FDA (0-8): 3
Clinical DILI in man; [4]
  DILI in vivo: NEG
Clinical DILI in man; [5]
  Classified as: NEG
Clinical DILI in man; [6]
  DILI in vivo: NEG
Clinical DILI in man; [12]
  Xu et al. (2008): Negative
Clinical DILI in man; [7]
  Type of DILI: Non-hepatotoxic
PHH 2D sandwich cultures; [8]
  2Dsw (Xu 2008) 100x: Negative
[1]
  Extent of hepatic metabolism: Minimal
[2]; [9]
  Cmax: 84 nM
[3]
  Chemically defined spheroids (this study) 20x: Negative

## COc1cc(NC(C)CCCN)c2ncccc2c1 (centres unmarked) [Primaquine]
Clinical DILI in man; FDA drug labeling DILI concern, ref Chen et al., 2011
  FDA (Severity): no DILI concern
Clinical DILI in man; [11]
  FDA (0-8): 0
Clinical DILI in man; [4]
  DILI in vivo: NEG
Clinical DILI in man; [5]
  Classified as: NEG
Clinical DILI in man; [6]
  DILI in vivo: NEG
Clinical DILI in man; [12]
  Xu et al. (2008): Negative
Clinical DILI in man; [7]
  Type of DILI: Non-hepatotoxic
Clinical DILI in man; structural analogue pairs, Figure 5, ref Chen et al., 2011, Xu et al., 2008 and others
  Clinical DILI classification (Figure 5): DILI negative
PHH 2D sandwich cultures; [8]
  2Dsw (Xu 2008) 100x: Negative
[1]
  Extent of hepatic metabolism: Extensive
[2]; [9]
  Cmax: 1080 nM
[3]
  Chemically defined spheroids (this study) 20x: Negative
  hepatotoxicity evaluation in CD-spheroids: did not cause apparent toxicity at any concentration tested

## Cc1ncc(CO)c(CO)c1O [Pyridoxine]
Clinical DILI in man; in vivo
  Classified as: NEG
  Clinical DILI class (panel heading of Figure 4): DILI negative
  DILI in vivo: NEG
  FDA (0-8): 0
  O'Brien et al. (2003): Non-toxic
  Type of DILI: Non-hepatotoxic
  Xu et al. (2008): Negative
PHH 2D sandwich cultures; [8]
  2Dsw (Xu 2008) 100x: Negative
[1]
  Extent of hepatic metabolism: Extensive
[2]; [9]
  Cmax: 122 nM
[3]
  Chemically defined spheroids (this study) 20x: Negative

## CCOC(=O)[C@H](CCc1ccccc1)N[C@@H](C)C(=O)N1Cc2ccccc2C[C@H]1C(=O)O [Quinapril]
Clinical DILI in man; DILI classification score, ref Guo et al. (2005)
  Guo et al. (2005): 3
Clinical DILI in man; [10]
  Suzuki et al. (2010): 1
Clinical DILI in man; [11]
  FDA (0-8): 3
Clinical DILI in man; [4]
  DILI in vivo: POS
Clinical DILI in man; [5]
  Classified as: POS
Clinical DILI in man; [6]
  DILI in vivo: POS
Clinical DILI in man; [12]
  Xu et al. (2008): Positive
Clinical DILI in man; [7]
  Type of DILI: Cholestatic injury
PHH 2D sandwich cultures; [8]
  2Dsw (Xu 2008) 100x: Negative
[1]
  Extent of hepatic metabolism: Moderate
[2]; [9]
  Cmax: 1200 nM
[3]
  Chemically defined spheroids (this study) 20x: Negative

## Cc1nc2n(c(=O)c1CCN1CCC(c3noc4cc(F)ccc34)CC1)CCCC2 [Risperidone]
Clinical DILI in man; in vivo
  Classified as: POS
  Clinical DILI class (panel heading of Figure 4): High DILI concern
  DILI in vivo: POS
  FDA (0-8): 3
  Guo et al. (2005): 2
  Suzuki et al. (2010): 1
  Type of DILI: Hepatocellular injury, Cholestatic injury or Mixed hepatitis
  Xu et al. (2008): Positive
PHH 2D sandwich cultures; [8]
  2Dsw (Xu 2008) 100x: Negative
[1]
  Extent of hepatic metabolism: Extensive
[1]; ref Madden et al., 1995, El-Hage and Surguladze, 2010, Rawden et al., 2000, Villaverde et al.
  first pass metabolism: extensive first pass metabolism
[2]; [9]
  Cmax: 80 nM
[3]
  Chemically defined spheroids (this study) 20x: Negative
